From publication PMC7116364 (Science translational medicine, 2020)
Values joined by “and” are separate entries in the source; they are usually repeats but may differ in a detail not shown here. Equal values may be shown once. Read-outs that look alike come from different tables or passages of the source.

Key:
[1] = test system: E. ocellatus venom (Nigeria); experiment: coincubation model of envenoming; set-up: species or system male CD1 mice; conditions: mouse, in vivo, iv
[2] = test system: venom SVMPs from six saw-scaled vipers; type: biochemical; conditions: read-out: IC50, neutralization of venom SVMP activity
[3] = test system: procoagulant activity of six Echis venoms; type: biochemical; conditions: for IC50: read-out: IC50, neutralization of venom-induced plasma clotting
[4] = test system: venom-induced plasma clotting (Echis venoms, calcium-independent); type: biochemical; conditions: for IC50: read-out: IC50, venom-induced plasma clotting in the absence of calcium
E. pyramidum venom [5] = experiment: coincubation model of envenoming; set-up: species or system male CD-1 mice; conditions: mouse, in vivo, iv
E. ocellatus venom [6] = test system: E. ocellatus venom; set-up: species or system male CD-1 mice; conditions: mouse, in vivo, ip
[7] = test system: E. carinatus (India) venom; experiment: coincubation model of envenoming; set-up: species or system male CD-1 mice; conditions: mouse, in vivo, iv
[8] = test system: cleavage of recombinant human prothrombin by saw-scaled viper venom; type: biochemical, Echis; conditions: lower dose (150 µM)
[9] = test system: Indian E. carinatus venom; type: biochemical; conditions: read-out: IC50, plasma assay
[10] = rabbits and dogs, intravenous or oral administration for 10-26 weeks; cited from earlier work
E. ocellatus venom [11] = experiment: neutralization of local hemorrhage; set-up: species or system male CD-1 mice; conditions: mouse, in vivo
[12] = test system: E. carinatus (India) venom; set-up: species or system male CD-1 mice; conditions: mouse, in vivo, ip
E. pyramidum venom [13] = test system: E. pyramidum venom; set-up: species or system male CD-1 mice; conditions: mouse, in vivo, ip
[14] = test system: serine protease activity of fractionated E. ocellatus venom; type: biochemical
[15] = drug-only / antivenom-only control groups; conditions: 600 µg DMPS orally, 24 h
E. ocellatus venom [16] = experiment: challenge and treat model using oral DMPS, E. ocellatus; set-up: species or system male CD-1 mice; conditions: mouse, in vivo
E. ocellatus venom [17] = test system: E. ocellatus venom; set-up: species or system mice; conditions: mouse, in vivo, iv
[18] = test system: venoms of E. pyramidum and E. carinatus; set-up: species or system mice; conditions: mouse, in vivo, iv
[19] = humans, cited from earlier work
[20] = test system: PLA2 activity of fractionated E. ocellatus venom; type: biochemical
[21] = rats and rabbits, first 6 h, after oral dosing; cited from earlier work
[22] = test system: E. ocellatus, E. pyramidum and E. carinatus venoms; set-up: species or system male CD-1 mice; conditions: mouse, in vivo, ip

## O=C(O)[C@@H](S)[C@@H](S)C(=O)O [DMSA, dimercaptosuccinic acid]
[1]
  plasma thrombin-antithrombin (TAT) concentrations: 300 to 666 ng/mL
  survival: three of the five experimental animals survived
[2]
  IC50: 19.3 to 35.1 µM
[3]
  IC50: 18.8 to 147 µM

## OCC(S)CS (stereo not shown) [dimercaprol]
[4]
  IC50: 0.49 to 14 µM
[1]
  plasma thrombin-antithrombin (TAT) concentrations: 40 to 50 ng/mL
  survival: survived until the end of the experiment (6 h)
E. pyramidum venom [5]
  protection against lethality: two deaths
[2]
  IC50: 0.04 to 0.18 µM
E. ocellatus venom [6]
  survival to the end of the experiment (24 h): two experimental animals also survived
  time of death: 111 min and 125 min and 150 min
[3]
  IC50: 0.14 to 1.36 µM
[7]
  protection against lethality: complete protection
[8]
  protection of prothrombin against cleavage, comparison: outperformed DMPS and DMSA

## O=C(O)CN(CCN(CC(=O)O)CC(=O)O)CC(=O)O [EDTA]
[4]; no calcium
  inhibition of venom-induced plasma clotting in the absence of calcium: effective at inhibiting venom-induced plasma clotting
[4]
  IC50: 4.89 to 253 µM
[2]
  IC50: 2.25 to 4.43 µM
[3]
  inhibition of venom activity in the plasma assay: did not extensively inhibit venom activity
[9]
  IC50: 2.18 µM
[8]
  protection of prothrombin against cleavage, comparison: outperformed DMPS and DMSA

## O=S(=O)(O)CC(S)CS (stereo not shown) [DMPS, 2,3-dimercapto-1-propanesulfonic acid]
[4]
  IC50: 2.18 to 7.55 µM
[10]
  changes in the concentrations of iron or calcium: no significant changes in the concentrations of iron or calcium
E. ocellatus venom [11]
  hemorrhagic lesion size (average): 1.43 mm^2
[1]
  plasma thrombin-antithrombin (TAT) concentrations: 170 to 252 ng/mL
  survival: survived until the end of the experiment (6 h)
E. pyramidum venom [5]
  protection against lethality: complete protection
[12]
  effect on lethality compared with the venom-only control: slight delay in lethality
E. pyramidum venom [13]
  survival for the duration of the experiment (24 h): two survived for the duration of the experiment (24 h)
[2]
  IC50: 1.64 to 3.4 µM
[14]
  inhibition of serine protease activity: unable to inhibit
E. ocellatus venom [6]
  prolonged animal survival compared to the venom-only controls: ~ 17 h
  survival to the end of the experiment (24 h): two of the five experimental animals survived
  time of death: 756 to 1440 min and 756 min
[3]
  IC50: 1.18 to 27.7 µM
[7]
  protection against lethality: two deaths
  time of death: 89 min and 110 min
[15]
  signs of toxicity (survival, behavioral and post-mortem observations): did not display any signs of toxicity in mice
E. ocellatus venom [16]
  echinocytes in blood films: markedly reduced the number of echinocytes
  prolonged animal survival compared to the venom-only controls: ~ 10 h
  survival at the end of the experiment (24 h): 2 of 5
E. ocellatus venom [17]
  RBC morphology: fully rescued normal RBC morphology
[18]
  RBC morphology: some protection
[19]; after ingestion
  time to peak plasma concentrations: 3 to 4 h
[19]; after oral administration
  time at which the drug can be detected in the plasma: 30 to 45 min
[19]
  clinical half-life: ~ 20 h
[20]
  inhibition of PLA2 activity: unable to inhibit
[21]
  fraction excreted in the urine / eliminated within 6 h: 85-89% and > 85%
[22]
  TAT concentrations, animals not protected by DMPS: > 400 ng/mL
  TAT concentrations, animals that survived for the duration of the experiment (average): ~ 200 ng/ml
